Results from US10906901B2, “Crystal form and salt form of N-phenyl-2-aminopyrimidine compound, and preparation method therefor” (HAINAN YUEKANG BIOMEDICINES CO., LTD., priority 2017, dated 2021).
≈ marks a conversion by molar mass, not a printed value.

Tests used:
[1] = Dynamic Vapor Sorption (DVS); assay type: physicochemical
[2] = Accelerated stability test; assay type: physicochemical
EGFR = EGFR (Homo sapiens, UniProt P00533); conditions: described in Chinese Patent Application 201610679161.7; cited from earlier work
[3] = tested on: cells with single or double EGFR mutations; conditions: described in Chinese Patent Application 201610679161.7; cited from earlier work
physchem = conditions: thermodynamic from solid
Method: Subsequently, 2 mL of buffer solutions at pH 1.2 and 6.8 were added respectively to prepare a saturated solution. The above resulting suspensions were placed in a shaker and shaken at a speed of 200 rpm for 2 hours at 25° C. The resulting mixtures were filtered, and the filtrates were diluted by an appropriate multiple and analyzed by HPLC to determine the solubility of each sample in different media.

[4] = Bioavailability assay, single oral dose of capsules in Beagle dogs; conditions: single oral dose 3 mg/kg, crystalline powders in capsules

Chain of EGFR (P00533 25-1210): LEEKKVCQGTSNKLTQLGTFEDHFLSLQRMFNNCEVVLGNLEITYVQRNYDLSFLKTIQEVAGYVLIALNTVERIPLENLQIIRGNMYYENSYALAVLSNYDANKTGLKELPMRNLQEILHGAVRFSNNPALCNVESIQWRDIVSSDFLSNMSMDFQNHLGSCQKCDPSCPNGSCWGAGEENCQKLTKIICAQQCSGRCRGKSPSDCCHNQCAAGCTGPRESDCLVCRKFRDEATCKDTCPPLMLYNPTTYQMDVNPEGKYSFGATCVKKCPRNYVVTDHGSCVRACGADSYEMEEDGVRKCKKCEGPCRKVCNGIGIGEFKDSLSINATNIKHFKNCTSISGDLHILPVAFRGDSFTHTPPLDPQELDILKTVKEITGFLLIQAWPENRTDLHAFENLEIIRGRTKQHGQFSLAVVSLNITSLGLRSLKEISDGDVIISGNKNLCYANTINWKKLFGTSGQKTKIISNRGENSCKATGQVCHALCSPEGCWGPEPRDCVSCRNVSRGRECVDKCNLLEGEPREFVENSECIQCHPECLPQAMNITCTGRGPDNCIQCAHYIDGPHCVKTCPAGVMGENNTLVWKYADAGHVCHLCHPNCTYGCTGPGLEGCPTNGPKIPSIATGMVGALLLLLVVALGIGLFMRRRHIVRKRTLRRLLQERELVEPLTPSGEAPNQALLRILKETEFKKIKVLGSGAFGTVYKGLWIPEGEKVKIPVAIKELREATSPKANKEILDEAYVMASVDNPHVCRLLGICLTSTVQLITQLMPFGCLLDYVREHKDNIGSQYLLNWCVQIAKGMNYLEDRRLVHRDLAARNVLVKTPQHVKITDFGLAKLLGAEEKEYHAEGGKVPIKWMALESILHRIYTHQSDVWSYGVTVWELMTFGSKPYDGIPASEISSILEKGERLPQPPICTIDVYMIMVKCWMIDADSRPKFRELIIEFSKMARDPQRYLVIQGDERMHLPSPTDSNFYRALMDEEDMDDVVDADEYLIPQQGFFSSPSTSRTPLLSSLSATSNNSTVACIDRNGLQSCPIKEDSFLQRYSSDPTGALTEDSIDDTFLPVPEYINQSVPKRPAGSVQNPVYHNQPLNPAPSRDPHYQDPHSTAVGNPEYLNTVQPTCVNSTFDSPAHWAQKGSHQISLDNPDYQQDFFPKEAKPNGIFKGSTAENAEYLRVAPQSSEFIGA

| Molecule | hygroscopicity ([1]; DVS curve at 25° C.) | moisture absorption ([1]; at 80% RH) | crystal structure after the accelerated stability test [2] | chemical stability ([2]; when avoiding the light) | inhibitory activity against EGFR (EGFR) | selectivity to EGFR mutants (EGFR) | inhibitory activity on cells with single or double EGFR mutations [3] | solubility at 2 h (physchem; buffer solution pH 1.2, 25 °C, pH 1.2, simulated gastric fluid) | solubility at 2 h (physchem; buffer solution pH 6.8, 25 °C, pH 6.8, aqueous buffer) | AUC(0-t) [4] | Cmax [4] | peak time Tmax [4] |
| --- | --- | --- | --- | --- | --- | --- | --- | --- | --- | --- | --- | --- |
| C=CC(=O)Nc1cc(Nc2nccc(-c3cnc4c(C)cccn34)n2)c(OC)cc1N(C)CCN(C)C [Compound 1, N-(2-methoxy-4-(N^1,N^2,N^2-trimethyl-1,2-ethylenediamine-1-yl)-5-acrylamidephenyl)-4-(8-methylimidazo[1,2-a]pyridin-3-yl)pyrimidin-2-amine] | almost no hygroscopicity | 0.934% | does not change | good chemical stability | significant inhibitory activity | high selectivity | strong inhibitory activity | 38.1 mg/mL (≈ 76.1 mM) | 6.75 mg/mL (≈ 13.5 mM) | – | – | – |
| Benzoate | – | – | – | – | – | – | – | – | – | 856.41 ng·h/mL | 203.15 ng/mL | 2 h |
